The nature of data set [1]: Gelling ability, solution phase (co-solvent) delivery to dilbit-water mixture. As to the method:
PSOGs were screened against dilbit, diesel and sunflower. The dilbit used in the Examples herein was prepared by dissolving bitumen in naphtha in a 65:35 ratio of bitumen to naphtha. A typical screening method utilized a 1:4 ratio of hydrophobic liquid to water (i.e., 1 mL oil product to 4 mL water) in a 20 mL vial. The gellant (22.5 mg) was dissolved in a carrier solvent, which was typically methanol, ethanol or isopropanol. Heat was applied to dissolve the solid if necessary. The gellant solution was transferred to the oil-water mixture and the vial was capped. Agitation was applied and the mixture allowed to settle. Gel formation typically presented as the formation of an oil pellet or a thickening of the oil phase.
Four portions of the prior art compound dodecanoyl-L-alanine of differing masses were weighed out and each dissolved in 1 mL of isopropyl alcohol. These four solutions were added to four separate 20 mL vials of 1:4 mL dilbit and water. […] Gel formation was evaluated qualitatively.
This procedure was repeated with dodecanoyl-β-alaninamide. Four portions of dodecanoyl-β-alaninamide of differing masses were weighed out and each dissolved in 1 mL of isopropyl alcohol. These four solutions were added to four separate 20 mL vials containing 1 mL dilbit and 4 mL water. […] Gel formation was evaluated qualitatively.

The nature of data set [2]: Oil thickening, aqueous suspension delivery to dilbit-water mixture. As for the experimental part: Gellants which presented as fine powdery solids were suspended in water (4-5 mL). The suspension was sonicated to reduce the particle size if necessary. The suspension was added to a mixture of 1 mL oil to 4 mL water in a 20 mL vial. The vial was capped and the mixture agitated. Thickening of the oil, likely due to the formation of an emulsion, could be observed within 15 minutes.
Four portions of prior art compound dodecanoyl-L-alanine of differing masses were weighed out and each suspended in 1 mL of water. These four suspensions were added to four separate 20 mL vials of 1:4 mL dilbit and water. […] Oil thickening was evaluated qualitatively.
This experiment was repeated with dodecanoyl-β-alaninamide. Four portions of dodecanoyl-β-alaninamide of differing masses were weighed out and each suspended in 7 mL of water. These four suspensions were added to four separate 20 mL vials of 1:4 mL dilbit and water. […] Oil thickening was evaluated qualitatively.

For data set [3] the following is noted: Bhattacharya et al., Chemical Communications p. 185, 2001; cited from earlier work.
Data set [4] can be described thus: Herder activity: slick thickness of oil added to water pre-dosed with herder. As for the experimental part:
The herder formulation was pre-dosed into 1 L of water in a flat glass pan under which was a 1×1 cm grid. A known volume of oil was applied to the pre-dosed water. A digital photo of the oil slick was recorded. The image was processed using ImageJ in order to calculate the area of the slick. Since volume and area are known, it is possible to calculate the thickness of the slick as a function of herder dosing. Compounds that maximize the thickness of the slick are considered better oil-herders.
Stearoyl alanine was dissolved in isopropyl alcohol. An aliquot of this solution was added to 1 L of water in a pan. The final dosage of stearoyl alanine was 0.77 mg in 1 L of water. Dilbit (2.27 g) was added. An overhead digital photo was taken of the oil after 10 minutes. The photo was analyzed to determine the area of the oil which could be used to calculate the thickness of the oil layer. The oil slick was determined to be 2.9 mm thick.
Silsurf, (trademark) a commercial herder added to 1 L of water in a glass pan for a final dosing of 1 mg. Dilbit (1.61 g) was added to the water. An overhead digital photo was taken of the oil after 10 minutes. The photo was analyzed to determine the area of the oil which could be used to calculate the thickness of the oil layer. The oil slick was determined to be 2.0 mm thick.

Data set [5] can be described thus: Herding (slick retraction) of oil already spread on water. Particulars: aqueous solution of herder applied to spread oil; images at 1, 5, 10 and 20 minutes. The text has this: When an oil (e.g., dilbit) is applied to water in a pan, the oil spreads to cover the surface of the water. Application of FA-AA as a salt (e.g., Li, Na or K salts) dissolved in water results in contraction of the oil layer. The pooled oil has reduced surface area and greater slick thickness. This is illustrated in FIG. 9A-E where a solution of the salt of a FA-AA is applied to an aliquot of oil which has been allowed to spread in a pan (FIG. 9A). Application of the aqueous herder solution results in contraction of the slick over time. Images taken at 1, 5, 10 and 20 minutes are shown in FIGS. 9B, 9C, 9D and 9E respectively.
Alternatively, an oil was applied to water in a pan and allowed to spread. A herder (e.g. L-phenylalanine, N-(1-oxotetradecyl)-, sodium salt) was applied to the water to retract the slick (i.e. decrease surface area while increasing the thickness/depth of the oil layer). Overhead photography was used to capture the herding process. The images were processed to determine the area of the slick and allow for calculation of the slick thickness (FIG. 9).

How the values of data set [6] were obtained: The herder L-phenylalanine, N-(1-oxotetradecyl)-, sodium salt and the gellant oleic-β-alaninamide were assessed for biodegradability in using OECD 301F guideline, manometric respirometer test.
A short description of data set [7]: Reduction of oil adhesion on glass beads conditioned with aqueous herder solution. Particulars: beads conditioned 1 hour, in oil 1 hour. As to the method:
Glass bead were used as a model substrate. The beads were weighed and transferred into a pre-weighed 60 mL plastic syringe. The beads were immersed in an aqueous solution of herder, C14-L-Phe-COONa, for 1 hour. An oil layer of conventional crude oil was added to the surface of the herder solution above the glass beads. The oil was lowered hydrostatically to immerse the beads in oil for 1 hour after which the oil was raised hydrostatically above the level of the beads. The water above the oil and beads were both removed. The mass of the oil retained on the glass beads was calculated as the difference between the mass of the oil-coated beads and the initial mass of the beads.

Data set [8] in a line: Gelling activity using mixed organic solvent-water active suspension. The following applies: 25 mg in 5 mL 2:3 1,4-butanediol and water, heated and cooled; added to 1:4 oil and seawater, gentle agitation. As to the method: The gellant oleic-p-alaninamide (25 mg) was suspended in 5 mL of a mixed solvent system composed of 2:3 1,4-butanediol and water. The mixture was heated to dissolve the solids. Upon cooling, the gellant precipitates as a cotton-like mass.

Data set [9] is described as follows: Gelling activity without organic solvent (active suspension in water). Particulars: 25 mg in 5 mL water, heated and cooled; no organic solvent. As for the experimental part:
The gellant oleic-β-alaninamide (25 mg) was suspended 5 mL of water which was dyed pink for visualization purposes. The mixture was heated to dissolve the gellant. Upon cooling, the gellant precipitated as a cotton-like mass which retains the water. […] Upon the addition of diesel, which has been dyed blue, the hydrophobic phase entered the gellant mass upon contact and displaced the dyed water (FIGS. 8B and 8C) to produce the gelled diesel.

On to oleic alaninamide, for which, in data set [1] (dilbit and water), the “State of dilbit after PSOG delivered as solution in a water-miscible solvent (FIG. 3)” value is reported as “gel pellet”. Besides, the “State of dilbit after PSOG suspended in water (FIG. 3)” value in data set [2] (dilbit and water) is “thickened state”.
In the case of `CCCCCCCCCCCC(=O)N[C@@H](C)C(=O)O` [dodecanoyl-L-alanine, reference compound], the “Dosing ratio at which a gel formed (qualitative evaluation)” value in [1] (gellant in 1 mL isopropyl alcohol, 1 mL dilbit and 4 mL water, tested at 2.5, 1.25, 0.83 and 0.63% w/v relative to dilbit) amounted to 2.5 % w/v. In addition, the Gelling ability entry in data set [3] is listed as “gel various hydrophobic organic liquids including petrol”. For the same compound, the “Dosing level at which the oil thickened (qualitative evaluation)” value in data set [2] (solid suspended in water, 1:4 mL dilbit and water, tested at 2.5, 1.25, 0.83 and 0.63% w/v relative to dilbit) is “did not thicken the oil at any of the dosing levels tested”.
The compound `CCCCCCCCCCCCCCCCCC(=O)N[C@@H](C)C(=O)O` [Stearoyl alanine] came in with an Oil slick thickness in data set [4] (0.77 mg in 1 L of water (from isopropyl alcohol solution), dilbit 2.27 g, photo after 10 minutes) of 2.9 mm.
With `CCCCCCCCCCCCCC(=O)N[C@@H](Cc1ccccc1)C(=O)[O-].[Na+]` [L-phenylalanine, N-(1-oxotetradecyl)-, sodium salt], the “Herding of dilbit (FIG. 9)” value in data set [5] is listed as “slick retraction”. The Biodegradability classification entry in [6] is recorded as “readily biodegradable”. Also, the “Average mass of conventional crude retained” value is 1.9 g in [7] (herder concentration 0.086 g/L), 1.3 g in [7] (herder concentration 0.57 g/L), 1.6 g in [7] (herder concentration 2.9 g/L) and 1.8 g in [7] (herder concentration 10 g/L).
Regarding `CCCCCCCC/C=C\CCCCCCCC(=O)NCCC(N)=O` [oleic-β-alaninamide], in data set [6], the Biodegradability classification entry is “inherently biodegradable”. The “Time to gelling of the oil phase” value in data set [8] is reported as “less than 1 minute”. Besides, in data set [9], the “Gelling of dyed diesel (FIG. 8)” value is on record as “gelled diesel”.
On to `CCCCCCCCCCCCCC(=O)N[C@@H](C)C(=O)[O-].[Na+]` [sodium tetradecanoylalaninate], for which the “Behaviour of oil added to a pan of water pre-dosed with herder (FIG. 2)” value in [4] (FA-AA salt pre-dosed into water) was “contraction of the oil slick”.
